Where two headings read alike, the source gives them in different places.
How the values were obtained:
[1] = test system: HCT116-MTAP-knockout (−/−) cell strain; experiment: Tumor cell proliferation inhibition assay (CellTiter-Glo), HCT116-MTAP-knockout (-/-); format: cell-based; conditions: Homo sapiens, 120 h, 5-day treatment
In short: (§1)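 Cells were seeded, left 24 h, then exposed to test compounds in a 10-point, 1:3 dilution series from 10 μM top concentration alongside a DMSO group. After 5 days at 37° C./5% CO2, growth inhibition was judged from ATP level by CellTiter-Glo luminescence.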

[2] = test system: SDMA in HCT116-MTAP-knockout cell line; experiment: Cell symmetric dimethylarginine (SDMA) test, In-cell Western, HCT116-MTAP-knockout; format: cell-based; conditions: Homo sapiens, 96 h
[3] = test system: SDMA in human colon cancer cell line HCT116; experiment: Cell symmetric dimethylarginine (SDMA) test, In-cell Western, HCT116 (MTAP wild-type); format: cell-based; conditions: Homo sapiens, HCT-116, 96 h
In short: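 HCT116 cells treated 4 days at 37° C with compound, top concentration 6 μM, 1:4 dilutions, 6 points, versus DMSO. Fixed cells stained for SDMA with DRAQ5 normalisation; 800/700 nm ratio after background subtraction fitted by non-linear regression for IC50.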

[4] = test system: DOHH-2 cell strain; experiment: Tumor cell proliferation inhibition assay (CellTiter-Glo), DOHH-2; format: cell-based; conditions: Homo sapiens, 120 h, DOHH-2 cells, 5-day treatment
Protocol: After the HCT116-MTAP-knockout (−/−) cell strain, the HCT116-MTAP wild-type(+/+)-cell strain, the DOHH-2 cell strain, or the Hut-78 cell strain was treated with the test compound for 5 days, the ATP level was measured using a CellTiter-Glo kit of Promega to evaluate the inhibition of the test compound against the growth of the tumor cell strain.
In the present application, the HCT116-MTAP-knockout (−/−) cell strain, the HCT116-MTAP wild-type (+/+)-cell strain, the DOHH-2 cell strain, or the Hut-78 cell strain was seeded into a 96-well cell culture plate at an appropriate cell density. After 24 h, the cells were treated using the test compounds diluted 1:3 fold at the highest concentration of 10 μM for 10 gradients, and a DMSO treatment group was set up separately. The cells were cultured in a 37° C./5% CO2 incubator for 5 days.

[5] = Pharmacokinetic test in rats (IV and PO); format: in vivo; conditions: rat, plasma, SD rats; for half-life: read-out: T½ (converted)
[6] = test system: Hut-78 cell strain; experiment: Tumor cell proliferation inhibition assay (CellTiter-Glo), Hut-78; format: cell-based; conditions: Homo sapiens, HuT78, 120 h, Hut-78 cells, 5-day treatment
In short: as §1

[7] = target: MAT2A recombinant protein (Homo sapiens, UniProt P31153); experiment: MAT2A inhibitory activity (malachite green colorimetric enzyme assay); format: biochemical
In short: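 Recombinant human MAT2A with L-methionine and ATP in 50 mM HEPES pH 7.5, 50 mM KCl, 10 mM MgCl2, 10 mM DTT, 60 min at room temperature. Phosphate released detected by malachite green reagent (15 min) at 630 nm. Ten-point 1:3 series from 1000 nM final; IC50 by variable-slope non-linear regression.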

[8] = test system: HCT116-MTAP wild-type (+/+)-cell strain; experiment: Tumor cell proliferation inhibition assay (CellTiter-Glo), HCT116-MTAP wild-type (+/+); format: cell-based; conditions: Homo sapiens, 120 h, 5-day treatment
In short: as §1

[9] = target: T1, hERG potassium current (Homo sapiens, UniProt Q12809); experiment: hERG inhibition test (whole-cell patch clamp, Qpatch); format: cell-based; conditions: initial concentration 30 μM, 6 concentration points
T1 construct: expressed in transfected cells; host or cells: HEK293, cultured under G418 selection
Protocol: The BEK293 cells were cultured in a DiVEM medium containing […] and 0.8 mg/mL G418 at 37° C. with 5% o CO2. The cells were digested by TrypLE™ Express and centrifuged. The cell density was adjusted to 2×10^6 cells/mL. The cells were gently mixed for 15-20 min using a shaker equilibrated at room temperature, and subjected to patch clamping on a machine. The medium of the prepared cells was replaced with extracellular fluid. The intracellular fluid and the extracellular fluid were taken from the fluid pool, and respectively added to the intracellular fluid pool and the cell and the test substance pool of the QPlate chip. The voltage stimulation of the whole-cell hERG potassium current was recorded by the whole-cell patch clamp, and the test data was collected and stored by Qpatch. The compound was diluted 3-fold at an initial concentration of 30 μM, and 6 concentration points were set, with each drug concentration being set for two administrations over a period of at least 5 min. The current detected in compound-free extracellular fluid for each cell was served as its own control group, and the detection was repeated at least twice independently using two cells per concentration. All electrophysiological experiments were performed at room temperature.
For data analysis, the current acted for each drug concentration and the current of the blank control were standardized
and then the inhibition rate corresponding to each drug concentration was calculated
The mean and standard error were calculated for each concentration, and the half maximal inhibitory concentration of each compound was calculated:
The dose-dependent effect was fitted non-linearly using the above equation, wherein Y represents the inhibition rate, C represents the concentration of the test substance, IC50 is the half maximal inhibitory concentration, and HillSlope represents the Hill coefficient. Curve fitting and calculation of IC50 were performed by Graphpad software.

[10] = Pharmacokinetic test in mice (IV and PO); format: in vivo; conditions: mouse, plasma, BALB/c mice; for half-life: read-out: T½ (converted)
[11] = HCT116-MTAP-knockout (−/−) cells, IC50 score, read-out: Tumor cell 5-day relative growth inhibition (HCT116-MTAP−/−) (nM), score
[12] = HCT116-MTAP-knockout (−/−) cells, IC50 value, read-out: Tumor cell 5-day relative growth inhibition (HCT116-MTAP−/−)
[13] = IC50 score class, read-out: Cell 96 h SDMA Inhibition (HCT116-MTAP−/−) (score)
[14] = IC50 score class, read-out: Cell 96 h SDMA Inhibition (HCT116-MTAP+/+) (score)
[15] = read-out: Cell 96 h SDMA inhibition (HCT116-MTAP+/+)
[16] = IC50 score, read-out: Tumor cell 5-day relative growth inhibition (DOHH-2) (nM), score
[17] = IC50 value, read-out: Tumor cell 5-day relative growth inhibition (DOHH-2)
[18] = IC50 score, read-out: Tumor cell 5-day relative growth inhibition (Hut-78) (nM), score
[19] = IC50 value, read-out: Tumor cell 5-day relative growth inhibition (Hut-78)
[20] = read-out: Cell 96 h SDMA Inhibition (HCT116-MTAP−/−)
[21] = IC50 score class, read-out: MAT2A Inhibition (score)
[22] = HCT116-MTAP wild-type (+/+) cells, IC50 score, read-out: Tumor cell 5-day relative growth inhibition (HCT116-MTAP+/+) (nM), score
[23] = HCT116-MTAP wild-type (+/+) cells, IC50 value, read-out: Tumor cell 5-day relative growth inhibition (HCT116-MTAP+/+)

MAT2A recombinant protein, sequence (P31153 whole entry): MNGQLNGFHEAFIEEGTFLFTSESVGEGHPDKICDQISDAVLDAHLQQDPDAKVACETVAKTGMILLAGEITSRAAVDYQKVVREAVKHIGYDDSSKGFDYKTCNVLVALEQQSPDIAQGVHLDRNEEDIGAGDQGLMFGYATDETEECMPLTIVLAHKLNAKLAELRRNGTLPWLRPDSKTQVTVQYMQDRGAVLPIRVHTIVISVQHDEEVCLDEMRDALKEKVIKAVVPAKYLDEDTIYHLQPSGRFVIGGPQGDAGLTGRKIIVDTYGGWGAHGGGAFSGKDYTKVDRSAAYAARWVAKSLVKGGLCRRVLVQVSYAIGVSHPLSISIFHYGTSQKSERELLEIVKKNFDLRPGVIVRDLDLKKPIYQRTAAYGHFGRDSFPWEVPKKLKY
T1 sequence (Q12809 whole entry): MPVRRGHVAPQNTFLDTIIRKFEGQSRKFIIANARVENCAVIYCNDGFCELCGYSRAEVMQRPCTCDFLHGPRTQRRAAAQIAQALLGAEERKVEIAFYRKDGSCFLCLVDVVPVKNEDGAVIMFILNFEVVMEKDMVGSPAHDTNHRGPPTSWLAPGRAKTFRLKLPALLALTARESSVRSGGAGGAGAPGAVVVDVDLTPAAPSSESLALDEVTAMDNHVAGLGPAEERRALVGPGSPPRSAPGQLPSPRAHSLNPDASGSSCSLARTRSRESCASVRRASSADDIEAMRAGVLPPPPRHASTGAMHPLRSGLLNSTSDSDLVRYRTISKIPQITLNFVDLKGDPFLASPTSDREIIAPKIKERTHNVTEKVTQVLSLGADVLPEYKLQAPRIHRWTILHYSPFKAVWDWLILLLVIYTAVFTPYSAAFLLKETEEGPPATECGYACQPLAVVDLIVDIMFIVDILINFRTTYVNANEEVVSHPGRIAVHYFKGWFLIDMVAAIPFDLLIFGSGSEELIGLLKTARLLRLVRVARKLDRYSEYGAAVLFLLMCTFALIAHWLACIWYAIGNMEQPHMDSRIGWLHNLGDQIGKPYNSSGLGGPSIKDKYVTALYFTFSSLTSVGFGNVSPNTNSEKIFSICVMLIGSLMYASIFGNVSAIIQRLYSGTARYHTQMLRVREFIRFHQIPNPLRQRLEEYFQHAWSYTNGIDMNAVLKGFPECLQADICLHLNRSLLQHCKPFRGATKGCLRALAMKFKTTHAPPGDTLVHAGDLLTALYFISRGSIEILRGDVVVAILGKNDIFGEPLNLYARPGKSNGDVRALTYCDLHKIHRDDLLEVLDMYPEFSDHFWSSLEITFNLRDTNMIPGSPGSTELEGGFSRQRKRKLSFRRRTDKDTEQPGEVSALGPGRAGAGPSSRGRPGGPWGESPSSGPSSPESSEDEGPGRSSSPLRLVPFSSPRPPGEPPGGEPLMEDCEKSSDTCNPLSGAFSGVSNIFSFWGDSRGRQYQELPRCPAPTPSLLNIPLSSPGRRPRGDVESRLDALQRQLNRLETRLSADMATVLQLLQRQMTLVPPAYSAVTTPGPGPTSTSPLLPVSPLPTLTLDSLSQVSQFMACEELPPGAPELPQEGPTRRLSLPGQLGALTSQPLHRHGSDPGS

Compound	IC50 [1, 11]	IC50 [1, 12]	IC50 [2, 13]	IC50 [3, 14]	IC50 [3, 15]	IC50 [4, 16]	IC50 [4, 17]	AUC ([5]; IV 1 mg/kg)	bioavailability ([5]; IV 1 mg/kg, PO 5 mg/kg)	half-life ([5]; IV 1 mg/kg)	AUC ([5]; PO 5 mg/kg)	half-life ([5]; PO 5 mg/kg)	IC50 [6, 18]	IC50 [6, 19]	IC50 [2, 20]	IC50 [7, 21]	IC50 ([7]; read-out: MAT2A Inhibition)	IC50 [8, 22]	IC50 [8, 23]	clearance ([5]; IV 1 mg/kg)	also measured
O=c1c2n[nH]cc2c2cc(F)c(Cl)cc2n1-c1cccnc1C1CC1 [Compound B425]	–	–	< 200 nM	> 3000 nM	> 10000 nM	–	–	21 µM·h	116%	14 h	128 µM·h	11.6 h	–	–	4.3 nM	< 100 nM	6 nM	–	–	2 mL/min/kg	IC50 ([1]; HCT116-MTAP−/− cells, IC50 class score, read-out: Tumor cell 5-day relative growth inhibition (HCT116-MTAP−/−) (nM), score): < 500 nM; IC50 ([1]; HCT116-MTAP−/− cells, read-out: Tumor cell 5-day relative growth inhibition (HCT116-MTAP−/−)): 260 nM; IC50 ([8]; HCT116-MTAP+/+ cells, IC50 class score, read-out: Tumor cell 5-day relative growth inhibition (HCT116-MTAP+/+) (nM), score): ≥ 2000 nM; IC50 ([8]; HCT116-MTAP+/+ cells, read-out: Tumor cell 5-day relative growth inhibition (HCT116-MTAP+/+)): > 10000 nM
COc1ccc(Cn2cc3c(n2)c(=O)n(-c2cccnc2)c2cc(Cl)ccc32)cc1 [Compound B28]	< 500 nM	75 nM	< 200 nM	200 to 1000 nM	342 nM	< 500 nM	444 nM	7.6 µM·h	60%	1.7 h	7.6 µM·h	3.3 h	–	–	30.5 nM	–	–	< 500 nM	279 nM	16 mL/min/kg	–
Cc1ncccc1-n1c(=O)c2nn(C)cc2c2ccc(OC(F)(F)F)cc21 [Compound B77]	–	–	< 200 nM	200 to 1000 nM	396 nM	< 500 nM	390 nM	–	–	–	–	–	< 500 nM	87.8 nM	32.8 nM	< 100 nM	43.1 nM	–	–	–	–

More lines, main results first:

IC50 [1, 11]	IC50 [1, 12]	IC50 [2, 13]	IC50 [3, 14]	IC50 [3, 15]	IC50 [4, 16]	IC50 [4, 17]	AUC ([5]; IV 1 mg/kg)	bioavailability ([5]; IV 1 mg/kg, PO 5 mg/kg)	half-life ([5]; IV 1 mg/kg)	AUC ([5]; PO 5 mg/kg)	half-life ([5]; PO 5 mg/kg)	IC50 [6, 18]	IC50 [6, 19]	IC50 [2, 20]	IC50 [7, 21]	IC50 ([7]; read-out: MAT2A Inhibition)	IC50 [8, 22]	IC50 [8, 23]	clearance ([5]; IV 1 mg/kg)	Compound	also measured
< 500 nM	228 nM	< 200 nM	> 3000 nM	4280 nM	500 to 2000 nM	940 nM	7.81 µM·h	67%	0.08 h	26 µM·h	0.97 h	–	–	–	–	–	–	–	–	CCn1cc2c(n1)c(=O)n(-c1cccnc1)c1cc(Cl)ccc21 [Compound B3]	–
< 500 nM	119 nM	< 200 nM	> 3000 nM	5140 nM	500 to 2000 nM	880 nM	–	–	–	–	–	< 500 nM	81.8 nM	63.5 nM	< 100 nM	29.3 nM	500 to 2000 nM	1730 nM	–	Cn1ccc(Cn2cc3c(n2)c(=O)n(-c2cccnc2)c2cc(Cl)ccc32)n1 [Compound B48]	–
–	–	200 to 1000 nM	> 3000 nM	9300 nM	≥ 2000 nM	–	2.5 µM·h	68%	0.62 h	7.95 µM·h	2.1 h	–	–	782 nM	< 100 nM	38.8 nM	–	–	21.7 mL/min/kg	CCn1cc2c(n1)c(=O)n(-c1cccc(F)c1)c1cc(Cl)ccc21 [Compound B4]	–
< 500 nM	138 nM	< 200 nM	200 to 1000 nM	480 nM	500 to 2000 nM	640 nM	–	–	–	–	–	–	–	76.9 nM	–	–	500 to 2000 nM	1680 nM	–	Cn1cc2c(n1)c(=O)n(-c1cccnc1)c1nc(C(F)(F)F)ccc21 [Compound B72]	IC50 [9]: > 30000 nM; AUC ([10]; IV 2 mg/kg): 7.43 µM·h; clearance ([10]; IV 2 mg/kg): 12.8 mL/min/kg; half-life ([10]; IV 2 mg/kg): 0.78 h; Vd ([10]; IV 2 mg/kg, read-out: Vz): 0.9 L/kg; AUC ([10]; PO 10 mg/kg): 65 µM·h; half-life ([10]; PO 10 mg/kg): 0.95 h
–	–	< 200 nM	200 to 1000 nM	861 nM	500 to 2000 nM	654 nM	–	–	–	–	–	< 500 nM	140 nM	54.3 nM	< 100 nM	27.8 nM	–	–	–	Cn1cc2c(n1)c(=O)n(-c1cccc(O)c1)c1cc(C(F)(F)F)ccc21 [Compound B150]	–

Source: patent publication US20240391923A1, “METHIONINE ADENOSYLTRANSFERASE 2A INHIBITOR FOR TREATING MTAP DELETION-TYPE CANCER” (SUZHOU GENHOUSE BIO CO., LTD., priority 2022, published 2024)
